Measured values from patent US10294202B2, “Pyrrolidinones as herbicides” (FMC Corporation, priority 2013, dated 2019).

Key:
[1] = test system: nutsedge, yellow; assay: Test C pre-/postemergence herbicide test; format: in vivo, Cyperus esculentus; settings: Preemergence; for Nutsedge, Yellow plant response rating: 31 g ai/ha, scale 0 to 100, 0 is no effect and 100 is complete control
Summary of the method: (§1)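 Visual rating, 0 (no effect) to 100 (complete control), versus untreated controls after 13 to 15 days in the greenhouse. Pre: seeds in loam/sand, sprayed at planting. Post: 1- to 4-leaf plants (2 to 18 cm) in peat-based mix. Compounds in non-phytotoxic solvent plus surfactant.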

[2] = test system: ducksalad; assay: Test B flooded paddy test; format: in vivo, Heteranthera limosa; settings: 250 g ai/ha, Flood; scale of 0 to 100 where 0 is no effect and 100 is complete control
Summary of the method: (§2)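 Treatment was made at the 2-leaf stage by dosing the standing floodwater, kept 3 cm above soil level for the whole test. Greenhouse exposure lasted 13 to 15 days. Response is a visual percent rating relative to controls, where a dash indicates no test result.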

[3] = test system: crabgrass, large; assay: Test C pre-/postemergence herbicide test; format: in vivo, Digitaria sanguinalis; settings: Preemergence; for Crabgrass, Large plant response rating: 31 g ai/ha, scale 0 to 100, 0 is no effect and 100 is complete control
Summary of the method: as §1

[4] = test system: blackgrass; assay: Test C pre-/postemergence herbicide test; format: in vivo, Alopecurus myosuroides; settings: Preemergence; for Blackgrass plant response rating: 31 g ai/ha, scale 0 to 100, 0 is no effect and 100 is complete control
Summary of the method: as §1

[5] = test system: rice; assay: Test B flooded paddy test; format: in vivo, Oryza sativa; settings: 250 g ai/ha, Flood; scale of 0 to 100 where 0 is no effect and 100 is complete control
Summary of the method: as §2

[6] = test system: pigweed; assay: Test C pre-/postemergence herbicide test; format: in vivo, Amaranthus retroflexus; settings: Preemergence; for Pigweed plant response rating: 31 g ai/ha, scale 0 to 100, 0 is no effect and 100 is complete control
Summary of the method: as §1

[7] = test system: giant foxtail; assay: Test A pre-/postemergence herbicide test; format: in vivo, Setaria faberii; settings: for Foxtail, Giant plant response rating: Preemergence, visual rating on 0 to 100 scale (0 no effect, 100 complete control)
Summary of the method: (§3)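 Seeds sown in loam soil/sand blend received a preemergence directed soil spray of test chemical in non-phytotoxic solvent with surfactant; postemergence plants (2–10 cm, one- to two-leaf stage) were sprayed with the same formulation. After about 10 days in greenhouse, injury was rated visually versus untreated controls, 0 (no effect) to 100 (complete control).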

[8] = test system: barnyardgrass; assay: Test B flooded paddy test; format: in vivo, Echinochloa crus-galli; settings: 250 g ai/ha, Flood; scale of 0 to 100 where 0 is no effect and 100 is complete control
Summary of the method: as §2

[9] = test system: wheat; assay: Test A pre-/postemergence herbicide test; format: in vivo, Triticum aestivum; settings: for Wheat plant response rating: Preemergence, visual rating on 0 to 100 scale (0 no effect, 100 complete control)
Summary of the method: as §3

[10] = test system: lambsquarters; assay: Test C pre-/postemergence herbicide test; format: in vivo, Chenopodium album; settings: Preemergence; for Lambsquarters plant response rating: 31 g ai/ha, scale 0 to 100, 0 is no effect and 100 is complete control
Summary of the method: as §1

[11] = 125 g ai/ha, scale 0 to 100 (0 no effect, 100 complete control)
[12] = 250 g ai/ha, scale 0 to 100 (0 no effect, 100 complete control)
[13] = Postemergence, 125 g ai/ha, 0 to 100 scale, 0 no effect, 100 complete control
[14] = Postemergence, 500 g ai/ha, 0 to 100 scale (0 no effect, 100 complete control)
[15] = preemergence, 500 g ai/ha, 0 to 100 scale

O=C1NCC(c2cccc(Br)c2)C1C(=O)Nc1ccccc1F (centres unmarked) [Compound 66]
Nutsedge, Yellow plant response rating [1]: 0 | Plant response rating, Nutsedge, Yellow ([1]; 62 g ai/ha, scale 0 to 100): 0 | Plant response rating, Nutsedge, Yellow [1, 11]: 0 | Plant response rating, Ducksalad [2]: 75 | Crabgrass, Large plant response rating [3]: 90 | Plant response rating, Crabgrass, Large ([3]; 62 g ai/ha, scale 0 to 100): 95 | Plant response rating, Crabgrass, Large [3, 11]: 98 | Plant response rating, Crabgrass, Large [3, 12]: 98 | Blackgrass plant response rating [4]: 0 | Plant response rating, Blackgrass ([4]; 62 g ai/ha, scale 0 to 100): 0 | Plant response rating, Blackgrass [4, 11]: 0 | Plant response rating, Blackgrass [4, 12]: 20 | Plant response rating, Rice [5]: 0 | Pigweed plant response rating [6]: 0 | Plant response rating, Pigweed ([6]; 62 g ai/ha, scale 0 to 100): 0 | Plant response rating, Pigweed [6, 11]: 0 | Plant response rating, Foxtail, Giant [7, 13]: 70 | Plant response rating, Foxtail, Giant [7, 14]: 80 | Foxtail, Giant plant response rating ([7]; 125 g ai/ha): 80 | Plant response rating, Foxtail, Giant [7, 15]: 90 | Plant response rating, Barnyardgrass [8]: 0 | Plant response rating, Wheat [9, 13]: 0 | Plant response rating, Wheat [9, 14]: 30 | Wheat plant response rating ([9]; 125 g ai/ha): 0 | Plant response rating, Wheat [9, 15]: 20 | Lambsquarters plant response rating [10]: 0 | Plant response rating, Lambsquarters ([10]; 62 g ai/ha, scale 0 to 100): 0 | Plant response rating, Lambsquarters [10, 11]: 0

O=C1NCC(c2cccc(OC(F)(F)F)c2)C1C(=O)Nc1cccc(F)c1F (centres unmarked) [Compound 68]
Nutsedge, Yellow plant response rating [1]: 10 | Plant response rating, Nutsedge, Yellow ([1]; 62 g ai/ha, scale 0 to 100): 10 | Plant response rating, Nutsedge, Yellow [1, 11]: 10 | Plant response rating, Ducksalad [2]: 90 | Crabgrass, Large plant response rating [3]: 90 | Plant response rating, Crabgrass, Large ([3]; 62 g ai/ha, scale 0 to 100): 90 | Plant response rating, Crabgrass, Large [3, 11]: 95 | Plant response rating, Crabgrass, Large [3, 12]: 95 | Blackgrass plant response rating [4]: 0 | Plant response rating, Blackgrass ([4]; 62 g ai/ha, scale 0 to 100): 60 | Plant response rating, Blackgrass [4, 11]: 60 | Plant response rating, Blackgrass [4, 12]: 80 | Plant response rating, Rice [5]: 25 | Pigweed plant response rating [6]: 45 | Plant response rating, Pigweed ([6]; 62 g ai/ha, scale 0 to 100): 75 | Plant response rating, Pigweed [6, 11]: 85 | Plant response rating, Foxtail, Giant [7, 13]: 80 | Plant response rating, Foxtail, Giant [7, 14]: 80 | Foxtail, Giant plant response rating ([7]; 125 g ai/ha): 90 | Plant response rating, Foxtail, Giant [7, 15]: 90 | Plant response rating, Barnyardgrass [8]: 40 | Plant response rating, Wheat [9, 13]: 0 | Plant response rating, Wheat [9, 14]: 20 | Wheat plant response rating ([9]; 125 g ai/ha): 0 | Plant response rating, Wheat [9, 15]: 20 | Lambsquarters plant response rating [10]: 55 | Plant response rating, Lambsquarters ([10]; 62 g ai/ha, scale 0 to 100): 55 | Plant response rating, Lambsquarters [10, 11]: 65
